# Measured values as given in patent US6610692B1, “Thrombin inhibitors” (Merck & Co., Inc., priority 1998, dated 2003).
# Where two headings read alike, the source gives them in different places.
# What was measured:
# human α-thrombin = human α-thrombin (Homo sapiens, UniProt P00734); assay: In vitro assay for determining proteinase inhibition: thrombin (sar-PR-pna or Z-GPR-afc substrate); assay type: biochemical
# Experimental: In vitro Assay for Determining Proteinase Inhibition
# The assays were carried out at 25° C. in 0.05 M TRIS buffer pH 7.4, 0.15 M NaCl, 0.1% PEG. Trypsin assays also contained 1 mM CaCl2.
# Concentrations of stock solutions of Z-GPR-afc were determined from measurements of absorbance at 380 nm of the 7-amino-4-trifluoromethyl coumarin produced upon complete hydrolysis of an aliquot of the stock solution by thrombin.
# Times required to achieve equilibration between enzyme and inhibitor were determined in control experiments. Initial velocities of product formation in the absence (Vo) or presence of inhibitor (Vi) were measured. Assuming competitive inhibition, and that unity is negligible compared Km/[S], [I]/e, and [I]/e (where [S], [I], and e respectively represent the total concentrations, of substrate, inhibitor and enzyme), the equilibrium constant (Ki) for dissociation of the inhibitor from the enzyme can be obtained from the dependence of Vo, Vi on [I] shown in equation 1: […]
# [1] = Table 1, 25° C., 0.05 M TRIS buffer pH 7.4, 0.15 M NaCl, 0.1% PEG, read-out: Inhibitory activity (Ki)
Structure (SMILES),Ki (human α-thrombin; [1]),other results
Cc1cnc(NCCc2ccccc2)c(=O)n1CC(=O)NCc1ccc2[nH]nnc2c1,> 20 nM,–
Cc1cnc(NCCc2cccnc2)c(=O)n1CC(=O)NCc1ccc2[nH]ccc2c1,< 20 nM,–
Cc1cnc(NCCc2ccccn2)c(=O)n1CC(=O)NCc1cnc2[nH]ccc2c1,–,Ki (human α-thrombin): < 20 nM
Cc1cnc(NCCc2ccccn2)c(=O)n1CC(=O)NCc1ccc2c(cnn2C)c1,> 20 nM,–
Cc1cnc(NCCc2ccccc2)c(=O)n1CC(=O)NCc1ccc2c(cnn2C)c1,> 20 nM,–
Cc1cnc(NCC(F)(F)c2ccccn2)c(=O)n1CC(=O)NCc1ccc2[nH]ccc2c1,< 20 nM,–
Cc1cnc(NCCc2ccccn2)c(=O)n1CC(=O)NCc1ccc2[nH]ncc2c1,< 20 nM,–
Cc1cnc(NCCc2ccccc2)c(=O)n1CC(=O)NCc1cc2nc[nH]c2cn1,> 20 nM,–
Cc1cc2c(c(=O)n1CC(=O)NCc1ccc3[nH]ccc3n1)NC(=O)[C@H](CC1CCC1)C2,< 20 nM,–
Cc1cc2c(c(=O)n1CC(=O)NCc1ccc3[nH]ncc3c1)NC(=O)[C@H](CC1CCC1)C2,< 20 nM,–
Cc1cc2c(c(=O)n1CC(=O)NCc1cnc3[nH]ccc3c1)NC(=O)[C@H](CC1CCC1)C2,< 20 nM,–
Cc1cc(SCC2CCC2)c(N)c(=O)n1CC(=O)NCc1ccc2[nH]nc(N)c2c1,> 20 nM,–
Cc1cnc(NCC(F)(F)c2ccccn2)c(=O)n1CC(=O)NCc1ccc2[nH]cnc2c1,< 20 nM,–
Cc1cnc(NCC(F)(F)c2ccccc2)c(=O)n1CC(=O)NCc1ccc2[nH]cnc2c1,< 20 nM,–
Cc1cnc(NCCc2ccccc2)c(=O)n1CC(=O)NCc1cnc2[nH]cnc2c1,> 20 nM,–
Cc1cnc(NCC(F)(F)c2ccccc2)c(=O)n1CC(=O)NCc1cnc2[nH]cnc2c1,< 20 nM,–
Cc1cnc(NCC(F)(F)c2ccccn2)c(=O)n1CC(=O)NCc1cnc2[nH]cnc2c1,< 20 nM,–
Cc1cc(SCC2CCC2)c(N)c(=O)n1CC(=O)NCc1cnc2[nH]cnc2c1,> 20 nM,–
Cc1cc2c(c(=O)n1CC(=O)NCc1ccc3[nH]ccc3n1)NC(=O)[C@H](CC1CC1)C2,< 20 nM,–
Cc1cnc(NCC(F)(F)c2ccccc2)c(=O)n1CC(=O)NCc1cc2cc[nH]c2cn1,< 20 nM,–
Cc1cnc(NCCc2ccccc2)c(=O)n1CC(=O)NCc1cc2c(Cl)c[nH]c2cn1,< 20 nM,–
"Cc1cc2[nH]cnc2cc1CNC(=O)Cn1c(C)cnc(NCCc2ccccn2)c1=O [Example 33, 3-[2-(2-Pyridyl)ethylamino]-6-methyl-1-(5-methylenecarboxamidomethyl-6-methylbenzimidazolyl)-pyrazinone]",–,melting point: 175 to 184 °C
"Cc1cc2[nH]cnc2cc1CNC(=O)Cn1c(C)cnc(NCC2(c3ccccn3)CC2)c1=O [Example 34, 3-[1-(2-Pyridyl)-cyclopropylmethylamino]-6-methyl-1-(5-methylenecarboxamidomethyl-6-methylbenzimidazolyl)-pyrazinone]",–,melting point: 146 to 154 °C
"Cc1cnc(NCCc2ccccn2)c(=O)n1CC(=O)NCc1ccc2[nH]cc(Cl)c2c1 [Example 35, 3-[2-(2-Pyridyl)ethylamino]-6-methyl-1-(3-chloro-5-methylene-carboxamidomethylindolyl)-pyrazinone]",–,melting point: 224 to 226 °C
"Cc1cnc(NCCc2ccccc2)c(=O)n1CC(=O)NCc1ccc2[nH]cc(Cl)c2c1 [Example 36, 3-(2-Phenethylamino)-6-methyl-1-(3-chloro-5-methylenecarboxamidomethylindolyl)-pyrazinone]",–,melting point: 223 to 226 °C
"Cc1cnc(NCC2(c3ccccn3)CC2)c(=O)n1CC(=O)NCc1ccc2[nH]ccc2c1 [Example 39, 3-[1-(2-Pyridyl)cyclopropylmethylamino]-6-methyl-1-(5-methylenecarboxamidomethylindolyl)-pyrazinone]",–,melting point: 212 to 215 °C
"Cc1cnc(NCC2(c3ccccn3)CC2)c(=O)n1CC(=O)NCc1ccc2[nH]cnc2c1 [Example 41, 3-[1-(2-Pyridyl)cyclopropylmethylamino]-6-methyl-1-(5-methylenecarboxamidomethyl-benzimidazolyl)-pyrazinone]",–,melting point: 134 to 139 °C
Cc1cc2[nH]cnc2cc1CNC(=O)Cn1c(C)cnc(NCC2(c3ccccn3)CC2)c1=O [drawing 20],< 20 nM,–
Cc1cnc(NCCc2ccccn2)c(=O)n1CC(=O)NCc1ccc2[nH]cc(Cl)c2c1 [drawing 38],< 20 nM,–
Cc1cnc(NCCc2ccccc2)c(=O)n1CC(=O)NCc1ccc2[nH]cc(Cl)c2c1 [drawing 39],< 20 nM,–

# Continued, in another order:
Ki (human α-thrombin; [1]),Structure (SMILES),other results
> 20 nM,Cc1nc2[nH]nnc2cc1CNC(=O)Cn1c(C)cnc(NCCc2ccccc2)c1=O,–
< 20 nM,CCC[C@@H]1Cc2cc(C)n(CC(=O)NCc3ccc4[nH]ccc4c3)c(=O)c2NC1=O,–
> 20 nM,Cc1cnc(NCCc2ccccc2)c(=O)n1CC(=O)NCc1cnc2[nH]nc(N)c2c1,–
< 20 nM,Cc1cc2c(c(=O)n1CC(=O)NCc1ccc3[nH]ccc3c1)NC(=O)[C@H](CC1CCC1)C2,–
< 20 nM,Cc1cnc(NCCc2ccc3c(c2)OCO3)c(=O)n1CC(=O)NCc1ccc2[nH]ccc2c1,–
> 20 nM,Cc1cnc(NCCc2ccccc2)c(=O)n1CC(=O)NCc1ccc2[nH]nc(N)c2c1,–
< 20 nM,Cc1cnc(NCCc2ccc3c(c2)OCO3)c(=O)n1CC(=O)NCc1ccc2[nH]ncc2c1,–
< 20 nM,Cc1cnc(NCCc2ccccc2)c(=O)n1CC(=O)NCc1ccc2[nH]ncc2c1,–
< 20 nM,Cc1cnc(NCC(F)(F)CC2CC2)c(=O)n1CC(=O)NCc1ccc2[nH]ccc2n1,–
< 20 nM,Cc1cnc(NCC(F)(F)c2ccccc2)c(=O)n1CC(=O)NCc1ccc2[nH]ncc2c1,–
> 20 nM,Cc1noc2ccc(CNC(=O)Cn3c(C)cnc(NCCc4ccccn4)c3=O)cc12,–
< 20 nM,Cc1cnc(NCC(F)(F)c2ccccc2)c(=O)n1CC(=O)NCc1ccc2[nH]nc(N)c2c1,–
> 20 nM,Cc1c(CNC(=O)Cn2c(C)cnc(NCCc3ccccc3)c2=O)cnc2[nH]ccc12,–
> 20 nM,Cc1cc(SCC2CC2)c(N)c(=O)n1CC(=O)NCc1cnc2[nH]cnc2c1,–
< 20 nM,Cc1cc2c(c(=O)n1CC(=O)NCc1ccc3[nH]ccc3n1)NC(=O)[C@H](CC(C)C)C2,–
< 20 nM,Cc1cc2c(c(=O)n1CC(=O)NCc1cc3cc[nH]c3cn1)NC(=O)[C@H](CC1CCC1)C2,–
< 20 nM,Cc1cnc(NCC(F)(F)c2ccccn2)c(=O)n1CC(=O)NCc1ccc2[nH]ccc2n1,–
> 20 nM,Cc1nc2cc(CNC(=O)Cn3c(C)cnc(NCC(F)(F)c4ccccc4)c3=O)ccc2[nH]1,–
< 20 nM,Cc1cc(SCC2CCC2)c(N)c(=O)n1CC(=O)NCc1ccc2[nH]cnc2c1,–
> 20 nM,Cc1cc(SCC2CC2)c(N)c(=O)n1CC(=O)NCc1ccc2[nH]cnc2c1,–
< 20 nM,Cc1cnc(NCCCCC2CC2)c(=O)n1CC(=O)NCc1cc2cc[nH]c2cn1,–
< 20 nM,Cc1cnc(NCC(F)(F)c2ccccn2)c(=O)n1CC(=O)NCc1cc2cc[nH]c2cn1,–
< 20 nM,Cc1cnc(NCCc2ccccn2)c(=O)n1CC(=O)NCc1cc2c(Cl)c[nH]c2cn1,–
< 20 nM,Cc1cnc(NCC2(c3ccccn3)CC2)c(=O)n1CC(=O)NCc1ccc2[nH]ccc2c1 [drawing 16],–
< 20 nM,Cc1cnc(NCC2(c3ccccn3)CC2)c(=O)n1CC(=O)NCc1ccc2[nH]cnc2c1 [drawing 18],–
> 20 nM,Cc1cc2[nH]cnc2cc1CNC(=O)Cn1c(C)cnc(NCCc2ccccn2)c1=O [drawing 19],–
